Measurements published in PMC8882856, “The affinity and selectivity of α‐adrenoceptor antagonists, antidepressants and antipsychotics for the human α2A, α2B, and α2C‐adrenoceptors and comparison with human α1 and β‐adrenoceptors” (Pharmacology Research & Perspectives, 2022).
“Also recorded” adds a separate entry of the source. Like-named read-outs stand apart in the source and are kept apart here.

Tests used:
human α2C‐adrenoceptor = target: T1, human α2C‐adrenoceptor (Homo sapiens, UniProt P18825); assay: ^3H‐rauwolscine whole cell competition binding, CHO‐α2C cells
T1 sequence (P18825 1-462): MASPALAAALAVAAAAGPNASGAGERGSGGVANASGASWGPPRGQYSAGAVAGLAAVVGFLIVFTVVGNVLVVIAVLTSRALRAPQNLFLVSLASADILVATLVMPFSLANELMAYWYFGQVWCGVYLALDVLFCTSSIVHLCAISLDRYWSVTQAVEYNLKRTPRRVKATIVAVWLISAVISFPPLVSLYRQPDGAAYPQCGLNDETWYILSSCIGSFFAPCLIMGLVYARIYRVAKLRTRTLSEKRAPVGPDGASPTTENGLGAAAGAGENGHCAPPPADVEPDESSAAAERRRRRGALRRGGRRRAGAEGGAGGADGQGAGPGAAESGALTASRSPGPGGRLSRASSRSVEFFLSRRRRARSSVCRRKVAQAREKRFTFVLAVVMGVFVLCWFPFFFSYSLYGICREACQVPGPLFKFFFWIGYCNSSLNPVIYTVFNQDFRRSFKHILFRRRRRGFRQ

human α2B‐adrenoceptor = target: T2, human α2B‐adrenoceptor (Homo sapiens, UniProt P18089); assay: ^3H‐rauwolscine whole cell competition binding, CHO‐α2B cells; details: for IC50 (log) α2B: printed as log IC50 bound (negative) in the Log KD α2B column, 3H-rauwolscine
T2 sequence (P18089 1-450): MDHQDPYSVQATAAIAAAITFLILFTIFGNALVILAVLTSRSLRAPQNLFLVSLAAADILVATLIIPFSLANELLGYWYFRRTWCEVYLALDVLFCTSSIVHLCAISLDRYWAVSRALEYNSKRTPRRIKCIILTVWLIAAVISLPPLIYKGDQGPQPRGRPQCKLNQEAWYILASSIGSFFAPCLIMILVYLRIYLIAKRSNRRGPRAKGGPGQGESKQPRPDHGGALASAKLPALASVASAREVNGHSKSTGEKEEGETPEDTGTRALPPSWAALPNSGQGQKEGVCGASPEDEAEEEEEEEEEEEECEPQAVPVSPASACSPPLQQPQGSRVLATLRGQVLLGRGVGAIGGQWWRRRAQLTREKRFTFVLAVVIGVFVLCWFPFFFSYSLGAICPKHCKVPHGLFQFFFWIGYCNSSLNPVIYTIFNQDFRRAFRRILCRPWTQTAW

human α2A‐adrenoceptor = target: T3, human α2A‐adrenoceptor (Homo sapiens, UniProt P08913); assay: ^3H‐rauwolscine whole cell competition binding, CHO‐α2A cells
T3 sequence (P08913 1-465): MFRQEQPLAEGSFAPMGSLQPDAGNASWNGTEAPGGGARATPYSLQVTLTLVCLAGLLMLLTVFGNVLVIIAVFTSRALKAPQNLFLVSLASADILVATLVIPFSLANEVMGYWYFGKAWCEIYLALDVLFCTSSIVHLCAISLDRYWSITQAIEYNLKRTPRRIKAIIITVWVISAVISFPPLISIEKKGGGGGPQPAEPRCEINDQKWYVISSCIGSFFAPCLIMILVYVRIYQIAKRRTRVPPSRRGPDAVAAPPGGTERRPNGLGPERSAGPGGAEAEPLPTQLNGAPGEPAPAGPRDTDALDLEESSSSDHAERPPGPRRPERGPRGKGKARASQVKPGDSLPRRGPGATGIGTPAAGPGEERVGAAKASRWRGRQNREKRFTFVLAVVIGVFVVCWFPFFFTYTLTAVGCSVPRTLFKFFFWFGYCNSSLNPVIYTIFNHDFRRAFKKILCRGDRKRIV

human β1‐adrenoceptor = human β1‐adrenoceptor (Homo sapiens, UniProt P08588); details: for IC50 (log) β1: printed as log IC50 bound (negative) in the Log KD β1 column, 3H-CGP12177
Sequence of human β1‐adrenoceptor (P08588 whole entry): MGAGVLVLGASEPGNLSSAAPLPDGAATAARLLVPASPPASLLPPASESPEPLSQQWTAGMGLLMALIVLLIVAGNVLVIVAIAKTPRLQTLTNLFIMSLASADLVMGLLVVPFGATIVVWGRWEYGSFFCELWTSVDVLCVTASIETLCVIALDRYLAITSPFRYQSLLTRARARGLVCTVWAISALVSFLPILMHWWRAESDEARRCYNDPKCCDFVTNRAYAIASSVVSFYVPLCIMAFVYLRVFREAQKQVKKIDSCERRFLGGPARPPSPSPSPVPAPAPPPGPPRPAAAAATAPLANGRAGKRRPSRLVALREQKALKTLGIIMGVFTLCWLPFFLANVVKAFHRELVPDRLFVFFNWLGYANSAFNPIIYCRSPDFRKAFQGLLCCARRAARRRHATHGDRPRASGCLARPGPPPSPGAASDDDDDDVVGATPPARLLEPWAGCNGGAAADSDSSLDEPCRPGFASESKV

human β2‐adrenoceptor = human β2‐adrenoceptor (Homo sapiens, UniProt P07550); type: binding; details: for IC50 (log) β2: printed as log IC50 bound (negative) in the Log KD β2 column, 3H-CGP12177
Sequence of human β2‐adrenoceptor (P07550 whole entry): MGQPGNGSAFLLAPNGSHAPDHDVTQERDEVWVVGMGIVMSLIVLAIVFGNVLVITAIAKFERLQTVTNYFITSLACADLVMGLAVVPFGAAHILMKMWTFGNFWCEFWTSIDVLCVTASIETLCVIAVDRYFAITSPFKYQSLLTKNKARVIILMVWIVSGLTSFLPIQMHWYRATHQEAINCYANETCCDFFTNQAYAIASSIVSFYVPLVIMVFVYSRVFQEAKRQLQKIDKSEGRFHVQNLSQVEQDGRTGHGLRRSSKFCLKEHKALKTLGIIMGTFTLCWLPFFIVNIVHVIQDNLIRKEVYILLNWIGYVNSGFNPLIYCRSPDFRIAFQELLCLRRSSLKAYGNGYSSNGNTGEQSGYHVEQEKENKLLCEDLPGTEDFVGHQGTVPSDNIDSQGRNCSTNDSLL

[1] = given as log KD (negative values), 3H-rauwolscine whole cell binding, CHO cells, mean ± s.e.mean
[2] = fold, higher affinity at α2C than α2A, 1 = no selectivity
[3] = log KD (negative), apparent KD: maximum concentration inhibited most but not all specific binding, IC50 from extrapolated curve
[4] = given as log KD (negative values), 3H-CGP12177 whole cell binding, CHO cells, mean ± s.e.mean
[5] = proportion of site 1 in two-site fit
[6] = two-component inhibition, proportion of higher affinity site
[7] = ^3H‐CGP12177 whole cell binding, log values, mean ± s.e.mean, ^app = apparent KD, 'no binding to' = log top concentration

CC(C)(C)NCC(O)COc1cccc2[nH]c(=O)[nH]c12 (stereo not shown) [CGP12177]
IC50 (human α2C‐adrenoceptor): > 1000 µM
Log KD α2B (human α2B‐adrenoceptor; [1]): No bind to -3
Binding at α2B (result in words) (human α2B‐adrenoceptor; up to log concentration -3): No binding -3
IC50 (human α2A‐adrenoceptor): > 1000 µM

COc1cc2nc(N3CCN(C(=O)COc4c(OC)cccc4C(C)C)CC3)nc(N)c2cc1OC [Rec15-2615]
IC50 (log) β1 (human β1‐adrenoceptor): IC50>-4
Selectivity ratio α2A vs α2C (α2C-selective) (human α2C‐adrenoceptor; [2]): 10.7
Log KD α2C (human α2C‐adrenoceptor; [1]): -6.56 ± 0.13
IC50 (log) β2 (human β2‐adrenoceptor): IC50>-4
IC50 (log) α2B (human α2B‐adrenoceptor): IC50>-4.5
Log KD α2A, apparent affinity (app) (human α2A‐adrenoceptor; [3]): -5.53 ± 0.12^app

O=C1Nc2ccccc2C2=NC(CN3CCN(c4ccccc4)CC3)CN12 (stereo not shown) [2-PMDQ]
Log KD β1 (human β1‐adrenoceptor; [4]): No binding to -4
Selectivity ratio α2A vs α2C (α2C-selective) (human α2C‐adrenoceptor; [2]): 1.7
Selectivity ratio α2B vs α2C (α2C-selective) (human α2C‐adrenoceptor; fold, higher affinity at α2C than α2B, 1 = no selectivity): 8.5
Log KD α2C (human α2C‐adrenoceptor; [1]): -7.07 ± 0.02
IC50 (log) β2 (human β2‐adrenoceptor): IC50>-4
Log KD α2B (human α2B‐adrenoceptor; [1]): -6.14 ± 0.08
Selectivity ratio α2A vs α2B (α2A-selective) (human α2A‐adrenoceptor; fold, higher affinity at α2A than α2B, 1 = no selectivity): 4.9
Log KD α2A (human α2A‐adrenoceptor; [1]): -6.83 ± 0.05

COc1ccccc1N1CCN(CCN2C(=O)c3ccccc3C(C)(C)C2=O)CC1 [ARC 239]
IC50 (log) β1 (human β1‐adrenoceptor): IC50>-5
Selectivity ratio α2A vs α2C (α2C-selective) (human α2C‐adrenoceptor; [2]): 18.2
Log KD α2C (human α2C‐adrenoceptor; [1]): -7.25 ± 0.14
IC50 (log) β2 (human β2‐adrenoceptor): IC50>-5
Selectivity ratio α2A vs α2B (α2B-selective column) (human α2B‐adrenoceptor; fold, higher affinity at α2B than α2A, 1 = no selectivity): 21.4
Selectivity ratio α2B vs α2C (α2B-selective column) (human α2B‐adrenoceptor; fold, higher affinity at α2B than α2C, 1 = no selectivity): 1.2
Log KD α2B (human α2B‐adrenoceptor; [1]): -7.32 ± 0.14
Log KD α2A (human α2A‐adrenoceptor; [1]): -5.99 ± 0.06

CN1CC[C@]2(CCN3CCc4c(oc5ccccc45)[C@@H]3C2)N(C)C1=O [MK-912]
IC50 (log) β1 (human β1‐adrenoceptor): IC50>-4
Log KD α2C (human α2C‐adrenoceptor): -9.82 ± 0.11
Selectivity ratio α2A vs α2C (α2C-selective) (human α2C‐adrenoceptor): 12.9
Selectivity ratio α2B vs α2C (α2C-selective) (human α2C‐adrenoceptor): 45.7
IC50 (log) β2 (human β2‐adrenoceptor): IC50>-4
Log KD α2B (human α2B‐adrenoceptor; [1]): -8.16 ± 0.10
Log KD α2A (human α2A‐adrenoceptor): -8.71 ± 0.05
Selectivity ratio α2A vs α2B (α2A-selective) (human α2A‐adrenoceptor): 3.6

CN1[C@H]2C[C@H](OC(=O)[C@H](CO)c3ccccc3)C[C@@H]1[C@@H](O)C2 [anisodamine]
Log KD β1 (human β1‐adrenoceptor): no binding to −3; also recorded: no binding to -3
Log KD α2C (human α2C‐adrenoceptor): −3.56 ± 0.07^app
Log KD β2 (human β2‐adrenoceptor): no binding to −3; also recorded: no binding to -3
IC50 (log) α2B, IC50>top concentration used (human α2B‐adrenoceptor): IC50>−3
IC50 (log) α2A, IC50>top concentration used (human α2A‐adrenoceptor): IC50>−3

CC(C)(Cc1c[nH]c2ccc(Cl)cc12)NCCOc1ccccc1OCC1CC1 [RS17053]
Log KD β1 (human β1‐adrenoceptor): −5.44 ± 0.04
Log KD α2C (human α2C‐adrenoceptor): −6.35 ± 0.08
Selectivity ratio α2A vs α2C (higher affinity for α2C) (human α2C‐adrenoceptor; ratio of KD values): 1.4
Selectivity ratio α2B vs α2C (higher affinity for α2C) (human α2C‐adrenoceptor; ratio of KD values): 5.0
Log KD β2 (human β2‐adrenoceptor): −6.42 ± 0.06
Log KD α2B (human α2B‐adrenoceptor): −5.65 ± 0.07
Log KD α2A (human α2A‐adrenoceptor): −6.20 ± 0.11
Selectivity ratio α2A vs α2B (higher affinity for α2A) (human α2A‐adrenoceptor; ratio of KD values): 3.5

CC(C)(C)NC[C@H](O)COc1cccc2[nH]c(C#N)cc12 [S-cyanopindolol]
Log KD α2C (human α2C‐adrenoceptor; [1]): -6.15 ± 0.07
Log KD α2B, apparent affinity (app) (human α2B‐adrenoceptor; [3]): -4.82 ± 0.10^app
Log KD α2A (human α2A‐adrenoceptor; [1]): -5.56 ± 0.10

CC(COc1ccccc1)N(CCCl)Cc1ccccc1 (stereo not shown) [phenoxybenzamine]
% site 1 α2C (percentage through first component) (human α2C‐adrenoceptor): −6.41 ± 0.11 −4.71 ± 0.13 74.1 ± 4.1% site 1
% site 1, α2C (human α2C‐adrenoceptor; [5]): 74.1 ± 4.1%
% site 1, α2C (human α2C‐adrenoceptor; [6]): 74.1 ± 4.1%
% site 1 α2B (percentage through first component) (human α2B‐adrenoceptor): −6.44 ± 0.11 −4.89 ± 0.08 51.4 ± 3.3% site 1
% site 1, α2B (human α2B‐adrenoceptor; [5]): 51.4 ± 3.3%
% site 1, α2B (human α2B‐adrenoceptor; [6]): 51.4 ± 3.3%

CC(C)(C)NCC(O)COc1cccc2[nH]c(C#N)cc12 (stereo not shown) [cyanopindolol]
Kd (human α2C‐adrenoceptor): 0.708 µM
Kd (human α2B‐adrenoceptor): 15.1 µM
Kd (human α2A‐adrenoceptor): 2.75 µM

COc1ccccc1N1CCN(CCCNc2c(C)c(=O)n(C)c(=O)n2C)CC1 [5-methyl-urapidil]
Log KD α2C (human α2C‐adrenoceptor; [1]): -5.81 ± 0.07
Log KD β2 (human β2‐adrenoceptor): -5.00 ± 0.07
Log KD α2B (human α2B‐adrenoceptor; [1]): -5.17 ± 0.05
Log KD α2A (human α2A‐adrenoceptor; [1]): -5.18 ± 0.05

COC(=O)C1=C(C)NC(C)=C(C(=O)OCCCN2CCC(c3ccccc3)(c3ccccc3)CC2)[C@H]1c1cccc([N+](=O)[O-])c1 [2‐niguldipine]
IC50 (human β2‐adrenoceptor): > 100 µM

O=C1Cc2cc(CCN3CCN(c4nsc5ccccc45)CC3)c(Cl)cc2N1 [ziprasidone]
Log KD β1 (human β1‐adrenoceptor; [7]): No binding to −4
Log KD β1 (human β1‐adrenoceptor; [4]): No binding to -4
Log KD β2 (human β2‐adrenoceptor; [7]): No binding to −4
Log KD β2 (human β2‐adrenoceptor; [4]): No binding to -4

CC(C)OC(=O)c1cc2c(OCC(O)CNC(C)(C)C)cccc2[nH]1 (stereo not shown) [SDZ 21009]
Log KD α2A (^app = apparent affinity) (human α2A‐adrenoceptor; log KD, negative sign, apparent KD from extrapolated curve, maximum concentration inhibited most but not all specific binding): -4.86 ± 0.07^app

COc1ccccc1N1CCN(CCCNc2c(C)c(=O)n(C)c(=O)n2C)CC1 [5‐methyl‐urapidil]
Log KD α2C (human α2C‐adrenoceptor): −5.81 ± 0.07
Log KD β2 (human β2‐adrenoceptor): −5.00 ± 0.07
Log KD α2B (human α2B‐adrenoceptor): −5.17 ± 0.05
Log KD α2A (human α2A‐adrenoceptor): −5.18 ± 0.05

CN(C)CCCC1(c2ccc(F)cc2)OCc2cc(C#N)ccc21 (stereo not shown) [citalopram]
Log KD β1 (human β1‐adrenoceptor; [7]): No binding to −4
Log KD β1 (human β1‐adrenoceptor; [4]): No binding to -4
IC50 (human α2C‐adrenoceptor): > 100 µM
Log KD β2 (human β2‐adrenoceptor; [7]): No binding to −4
Log KD β2 (human β2‐adrenoceptor; [4]): No binding to -4
IC50 (human α2A‐adrenoceptor): > 100 µM

CCC1(c2cnc[nH]2)Cc2ccccc2C1 [atipamezole]
Log KD β1 (human β1‐adrenoceptor; [7]): No binding to −4.5
Log KD β1 (human β1‐adrenoceptor; [4]): No binding to -4.5
Log KD β2 (human β2‐adrenoceptor; [7]): No binding to −4.5
Log KD β2 (human β2‐adrenoceptor; [4]): No binding to -4.5
Kd (human α2A‐adrenoceptor): 0.00316 µM

CCC1(C2=NCCN2)Cc2ccccc2O1 (stereo not shown) [eforaxan]
Log KD β1 (human β1‐adrenoceptor; [7]): no binding to −3
Log KD β1 (human β1‐adrenoceptor; [4]): no binding to -3
Log KD β2 (human β2‐adrenoceptor; [7]): no binding to −3
Log KD β2 (human β2‐adrenoceptor; [4]): no binding to -3

Cc1ccc(OCC(O)C(C)NC(C)C)c2c1CCC2 (stereo not shown) [ICI 118551]
Log KD α2C (human α2C‐adrenoceptor; [1]): -5.05 ± 0.04
IC50 (log) α2B (human α2B‐adrenoceptor): IC50>-4
Log KD α2A (human α2A‐adrenoceptor; [1]): -5.03 ± 0.03
